Results on 70 compounds are retold here after ChEMBL document CHEMBL3507680, “University of Dundee, Gates Library screen for HepG2 cell viability”.

This data set can be described thus: Human HepG2 cell viability assay in 384 well format. More on the design: dose 125 nL, time 70.5 hour; concentration not given beside the values. The data set is classed as toxicity, cell-based. The following applies: HepG2 cells, read-out: Inhibition.
As to `CN1CCN(Cc2noc(CCc3nc(-c4ccccc4)no3)n2)CC1`, the cytotoxicity at 70.5 h is -6.63%.

Consider `Cn1nc(C2CCN(C(=O)Cc3ccsc3)CC2)c2cccnc21`, for which the cytotoxicity at 70.5 h is -7.5%.

Take `O=C(N1CCOCC1)N1C[C@H]2CN(Cc3nccs3)C[C@H]2C1`: the cytotoxicity at 70.5 h amounted to 3.41%.

On to `c1ccc2c(Cc3nnc([C@H]4CCN(C5CCC5)C4)o3)c[nH]c2c1`, for which the cytotoxicity at 70.5 h is -6.08%.

For the compound `Cc1ccccc1CN1CCN(C(=O)CCn2ccccc2=O)CC1`, the cytotoxicity at 70.5 h was -12.1%.

On to `Cc1cc(C)n(NC(=O)c2ccc(Cl)cc2Cl)c(=O)c1`, for which the cytotoxicity at 70.5 h was -16.4%.

`O=C([C@@H]1C[C@H]2[C@H](CCN2Cc2nccs2)O1)N1CCOCC1`: the cytotoxicity at 70.5 h is -8.03%.

Regarding `Cc1nc(Nc2ccc(Cl)cn2)sc1C(=O)NC(C)C`, the cytotoxicity at 70.5 h stood at 7.41%.

On to `OCc1cccc(OCc2ccon2)c1`, for which the cytotoxicity at 70.5 h was -3.01%.

As to `COCc1nc(CN(CC(N)=O)C(C)C)cs1`, the cytotoxicity at 70.5 h is -3.43%.

As for `CS(=O)(=O)NCCNC(=O)C1(c2cccc(Cl)c2)CC1`, the cytotoxicity at 70.5 h is -4.01%.

For the compound `Cc1cc(C(=O)N2C[C@@H]3COC[C@]3(c3nnc(C4CC4)o3)C2)on1`, the cytotoxicity at 70.5 h is -19%.

With `CC(C)Oc1ncc(C(=O)N2CCC(NC(=O)C3CC3)CC2)cc1Cl`, the cytotoxicity at 70.5 h was found to be 7%.

`CC(C)CNC(=O)CN(Cc1ccc(F)cc1)S(C)(=O)=O`: the cytotoxicity at 70.5 h was -5.67%.

For `CNC(=O)CS(=O)(=O)Cc1ccc(OC)c(F)c1`, the cytotoxicity at 70.5 h was -11.9%.

`CCc1nc(CC)n(CC(=O)NCc2ccccc2C)n1`: the cytotoxicity at 70.5 h was -10.6%.

Take `O=C1[C@H]2CN(Cc3ccoc3)C[C@H]2CN1Cc1cccnc1`: the cytotoxicity at 70.5 h was -11.8%.

With `CCc1ocnc1C(=O)N1CCN(c2ccc3ccccc3c2)CC1`, the cytotoxicity at 70.5 h turned out to be 4.76%.

As for `CCCC(C)NC1CCN(c2ccc(-n3ccnc3C)cc2)CC1` (stereo not given), the cytotoxicity at 70.5 h was -2.41%.

For the compound `Cc1ccoc1C(=O)N1CCC(n2cc(CO)nn2)CC1`, the cytotoxicity at 70.5 h was -3.4%.

For `Cc1cnccc1N1CCN(C[C@]2(O)CCCN3CCCC[C@@H]32)CC1`, the cytotoxicity at 70.5 h was 4.29%.

As for `CC(C)N1CC(C(=O)NCc2ccc(S(=O)(=O)N(C)C)cc2)CC1=O` (stereo not given), the cytotoxicity at 70.5 h was -7.28%.

Turning to `c1cncc(N2CCCn3nnc(CN4CCOCC4)c3C2)c1`, the cytotoxicity at 70.5 h was -5%.

For the compound `CCOCC(=O)NS(=O)(=O)c1ccc(F)cc1C(F)(F)F`, the cytotoxicity at 70.5 h is -4.87%.

Consider `CC(C)c1nc(C2CCCN2C(=O)c2ccc(C#N)cn2)no1` (stereo not given), for which the cytotoxicity at 70.5 h was 1.98%.

For the compound `O=C(COc1ccc(C(F)(F)F)cc1)N1CCOCC1c1ncon1` (stereo not given), the cytotoxicity at 70.5 h was -6%.

Regarding `CN1CC(=O)N(c2ccccc2)CC12CCN(C(=O)CC1CC1)C2` (stereo not given), the cytotoxicity at 70.5 h turned out to be 8.17%.

Turning to `O=C(NCc1ccco1)c1cccc(C(=O)NCc2ccco2)n1`, the cytotoxicity at 70.5 h was -20.3%.

`CC(C)CC(=O)N1CCCC1c1cc(CO)[nH]n1` (stereo not given): the cytotoxicity at 70.5 h is -4.42%.

Regarding `Cc1cc2c(c(=O)n1CCC(=O)O)C=CC(C)(C)O2`, the cytotoxicity at 70.5 h is -2.47%.

Turning to `CC(C)(C)OC(=O)N1CSC[C@@H]1C(=O)NCc1ccsc1`, the cytotoxicity at 70.5 h was -1.79%.

With `CN(C)CCN1CCC2(CCN(C(=O)c3cccc(F)c3)CC2)C1=O`, the cytotoxicity at 70.5 h was found to be 15.4%.

`N#Cc1cc(F)ccc1CN1CCCC1Cn1cccn1` (stereo not given): the cytotoxicity at 70.5 h is -5.11%.

On to `O=C(c1ccncc1)N1CCCC(c2cc(C(F)F)n3ncnc3n2)C1` (stereo not given), for which the cytotoxicity at 70.5 h was -3.18%.

As for `O=C(NCCCn1cccn1)C1(c2ccc(Br)cc2)CC1`, the cytotoxicity at 70.5 h was -2.34%.

Consider `CCc1nnc(CN2CCCCC2Cn2cncn2)o1` (stereo not given), for which the cytotoxicity at 70.5 h came out at 10.6%.

On to `CCOC(=O)[C@@H]1[C@@H](c2ccccc2)CN2CCN(C(=O)N(C)C)C[C@H]12`, for which the cytotoxicity at 70.5 h was -5.43%.

For `CN(C)c1nc2c(c(N3CCC4(CC3)CNC(=O)C4)n1)CCCC2`, the cytotoxicity at 70.5 h is -3.91%.

Regarding `Cc1nc(C)n(CC(=O)N2CCCC(c3nc(C)n4c(C)csc34)C2)n1` (stereo not given), the cytotoxicity at 70.5 h was determined as 0.595%.

`Cc1cnc(N2CCC3(CCN(CC4CCCC4)C3=O)CC2)nc1`: the cytotoxicity at 70.5 h was -11%.

`Cc1csc(CNC(=O)NCC(O)c2ccccc2)n1` (stereo not given): the cytotoxicity at 70.5 h is -4.81%.

For `Cc1ccnc(NC(=O)c2cccc(OCc3nnnn3C)c2)c1`, the cytotoxicity at 70.5 h is -17.9%.

`Cc1cc(C)n(CC2CCCN2C(=O)c2cccn3ccnc23)n1` (stereo not given): the cytotoxicity at 70.5 h was -1.92%.

`CC(C)NC(=O)N1CCC2(CCC(=O)N2CCN(C)C)CC1`: the cytotoxicity at 70.5 h was -8.1%.

On to `CC(C)NC(=O)[C@@H]1Cc2[nH]cnc2CN1CCCc1ccccc1`, for which the cytotoxicity at 70.5 h came out at 6.69%.

Consider `COc1ccc(CC(=O)NC(CC(=O)O)c2ccc(F)cc2)cc1OC` (stereo not given), for which the cytotoxicity at 70.5 h is -5.71%.

Take `Cc1noc(C)c1-c1cccc(C2CCN(S(=O)(=O)N(C)C)CC2)n1`: the cytotoxicity at 70.5 h was 2.89%.

Regarding `NC(=O)c1ccc(OCC(=O)N2CCCC(n3cccn3)C2)cc1` (stereo not given), the cytotoxicity at 70.5 h is -12%.

Consider `Cc1nc(C(=O)N2CCOC(Cc3ccccc3)C2)co1` (stereo not given), for which the cytotoxicity at 70.5 h amounted to 23%.

On to `Cc1cc(C)c(CNC(=O)NC2CCN(C(=O)C(C)C)CC2)c(C)c1`, for which the cytotoxicity at 70.5 h is -10.6%.

With `O=C(c1ccccn1)N1CCC2(CC1)COC(COCC1CCCC1)C2` (stereo not given), the cytotoxicity at 70.5 h was -13.8%.

With `Cc1cc(C(F)(F)F)nn1CCCNC(=O)C1CCN(S(C)(=O)=O)CC1`, the cytotoxicity at 70.5 h was -10.7%.

As for `Cc1nc(CNC(=O)N2CCN(c3ccc(Cl)cn3)CC2)sc1C`, the cytotoxicity at 70.5 h is -3.28%.

Consider `CN(CCc1ccccc1)Cc1cc(C(=O)N2CCN(C)C(=O)C2)no1`, for which the cytotoxicity at 70.5 h is -14.7%.

Take `Cn1nnnc1SCCC(=O)NCC(C)(C)c1ccccc1F`: the cytotoxicity at 70.5 h worked out at 19.1%.

Regarding `Cc1nn(C)c(C)c1C1COCCN1C(=O)CC(C)(C)C` (stereo not given), the cytotoxicity at 70.5 h is 24.2%.

With `COCCn1ccc(NC(=O)Nc2ccc(C(N)=O)c(F)c2)n1`, the cytotoxicity at 70.5 h came to 13.6%.

On to `CNS(=O)(=O)CC(=O)N1CC2(CCCC2)c2c(F)cccc21`, for which the cytotoxicity at 70.5 h was 0.789%.

Turning to `CNC(=O)[C@@H]1CCO[C@@H]2CCN(C3CCOCC3)C[C@@H]21`, the cytotoxicity at 70.5 h was -0.345%.

For the compound `COc1ccc(-c2cnc(CN3CCCC3Cn3cncn3)o2)cc1` (stereo not given), the cytotoxicity at 70.5 h was -6.4%.

Turning to `CC1(C)CN(C(=O)c2ncc(F)cc2F)CCC1(O)CN1CCOCC1` (stereo not given), the cytotoxicity at 70.5 h was -0.112%.

Regarding `Cc1nn(C)c(Cl)c1C1CCCN1CCc1ccccn1` (stereo not given), the cytotoxicity at 70.5 h was 1.44%.

As to `CCCN(Cc1cnn(C)c1)S(=O)(=O)c1cc(C)cc(F)c1`, the cytotoxicity at 70.5 h came out at 23.3%.

As for `CN(C)c1ncccc1NC(=O)COCC1CC1`, the cytotoxicity at 70.5 h is -9.25%.

For `CC(c1nc(C2CC2)no1)N1CCN(CCn2ccccc2=O)CC1` (stereo not given), the cytotoxicity at 70.5 h was -4.93%.

Consider `N#Cc1cccc(N2CCCC3(CN(C(=O)c4ccc[nH]4)CCO3)C2)c1` (stereo not given), for which the cytotoxicity at 70.5 h was -5.89%.

Take `Cc1ccc(C(=O)N2CC[C@@H]3[C@H]2CCC(=O)N3CCN(C)C)cn1`: the cytotoxicity at 70.5 h was found to be 18.5%.

Consider `CCN(CC)C(=O)C1CCC2(CCNCC2)CO1` (stereo not given), for which the cytotoxicity at 70.5 h is -14.2%.

Regarding `Cc1c(C(=O)N(CCN(C)C)Cc2ccccn2)oc2ccccc12`, the cytotoxicity at 70.5 h was -5.85%.

Take `CCCc1nc(C)c(C(=O)NC2CCN(C3CC3)C2)s1` (stereo not given): the cytotoxicity at 70.5 h was 14.1%.
